Results from patent publication US9474790B2, “Stable, protracted GLP-1/glucagon receptor co-agonists for medical use” (Novo Nordisk A/S, priority 2013, dated 2016).
Numbered stars: 1 amine (or outer) side, 2 acyl side, 3 side chain; on linkers, the order of the positions; unused ones are H or OH. Square brackets hold non-standard residues; d marks the D form. Side chains are listed from the residue outwards. Peptide text beside a SMILES is read from it. * marks the point of attachment. C18 diacid = O=C(O)CCCCCCCCCCCCCCCCC(=O)*; γGlu = O=C(O)[C@H](CCC(=O)[*:2])N[*:1]; AEEA = NCCOCCOCC(=O)O; Aib = CC(C)(N)C(=O)O

Target: T1, human GLP-1 receptor (Homo sapiens, UniProt P43220)
T1 construct: expressed in transfected cells; host or cells: BHK cells (parent BHKTS13), clone FCW467-12A/KZ10-1, with CRE luciferase
Experiment: GLP-1 receptor potency, CRE luciferase reporter gene assay in BHK cells
Type: cell-based
Details: BHK cells expressing human GLP-1 receptor, read-out: EC50 GLP-1R
Method: The purpose of this example was to test the potency, of the glucagon derivatives of the invention, in vitro. The in vitro potency is the measure of human GLP-1 receptor or glucagon receptor activation, respectively, in a whole cell assay.
In vitro potency was determined by measuring the response of human GLP-1 or glucagon receptor, respectively, in a reporter gene assay. The assay was performed in a stably transfected BHK cell line that expresses either the human GLP-1 receptor or the human glucagon receptor and contains the DNA for the cAMP response element (CRE) coupled to a promoter and the gene for firefly luciferase (CRE luciferase). […] When assay incubation was completed, the luciferase substrate (luciferin) was added and the enzyme converted luciferin to oxyluciferin and produces bioluminescence. The luminescence was measured as the readout for the assay.
The cells used in this assay (clone FCW467-12A/KZ10-1) were BHK cells with BHKTS13 as a parent cell line. The cells were derived from a clone (FCW467-12A) that expresses the human GLP-1 receptor and were established by further transfection with
CRE luciferase to obtain the current clone.
The cells were cultured at 5% CO2 in DMEM medium with 10% FBS, 1×GlutaMAX, 1 mg/ml G418, 240 nM MTX (methotrexate) and 1% pen/strep (penicillin/streptomycin). They were aliquoted and stored in liquid nitrogen. Before each assay, an aliquot was taken up and washed three times in PBS before being suspended at the desired concentration in assay medium. For 96-well plates the suspension was made to give a final concentration of 5×10EE3 cells/well.
The following chemicals were used in the assay: Pluronic F-68 (10%) (Gibco 2404), ovalbumin (Sigma A5503), DMEM w/o phenol red (Gibco 11880-028), 1 M Hepes (Gibco 15630), Glutamax 100× (Gibco 35050) and steadylite plus (PerkinElmer 6016757).
Assay Medium consisted of DMEM w/o phenol red, 10 mM Hepes, lx GlutaMAX, 2% Ovalbumin and 0.2% Pluronic F-68.
Cell stocks were thawed in a 37° C. water bath. Cells were washed three times in PBS. The cells were counted and adjusted to 5×10EE3 cells/50 μl (1×10EE5 cells/ml) in Assay Medium. A 50 μl aliquot of cells was transferred to each well in the assay plate.
Stocks of the test compounds and reference compounds were diluted to a concentration of […] in Assay Medium. Compounds were diluted 10-fold to give the following concentrations: 2×10EE-6 M, 2×10EE-7 M, 2×10EE-8 M; 2×10EE-9 M, 2×10EE-10 M, 2×10EE-11 M, 2×10EE-12 M and 2×10EE-13 M. For each compound a blank assay medium control was also included.
A 50 μl aliquot of compound or blank was transferred from the dilution plate to the assay plate. Compounds were tested at the following final concentrations: 1×10EE-6 M, 1×10EE-7 M, 1×10EE-8 M; 1×10EE-9 M, 1×10EE-10 M, 1×10EE-11 M and 1×10EE-12 M and 1×10EE-13 M.
The assay plate was incubated for 3 h in a 5% CO2 incubator at 37° C. The assay plate was removed from the incubator and allowed to stand at room temperature for 15 min. A 100 μl aliquot of steadylite plus reagent was added to each well of the assay plate (reagent is light sensitive). Each assay plate was covered with aluminum foil to protect it from light and shaken for 30 min at room temperature. Each assay plate was read in a Perkin Elmer TopCount NXT instrument.
The data from the TopCount instrument was transferred to GraphPad Prism software. The software performed a non-linear regression (log(agonist) vs response-Variable slope (four parameter)). EC50 values were calculated by the software and reported in pM.

T1 sequence (P43220 24-463): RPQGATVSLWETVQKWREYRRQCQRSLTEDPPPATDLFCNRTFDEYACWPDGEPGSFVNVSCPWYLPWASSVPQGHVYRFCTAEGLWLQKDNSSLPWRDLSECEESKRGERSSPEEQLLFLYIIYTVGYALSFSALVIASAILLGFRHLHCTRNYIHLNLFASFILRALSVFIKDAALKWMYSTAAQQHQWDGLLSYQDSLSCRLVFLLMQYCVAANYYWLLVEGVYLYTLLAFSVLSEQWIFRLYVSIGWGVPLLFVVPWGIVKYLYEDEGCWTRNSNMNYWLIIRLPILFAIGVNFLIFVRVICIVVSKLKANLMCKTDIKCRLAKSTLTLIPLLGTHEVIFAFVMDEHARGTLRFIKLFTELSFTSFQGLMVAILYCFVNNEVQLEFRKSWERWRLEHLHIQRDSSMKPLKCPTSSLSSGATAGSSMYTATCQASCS

Question: `CC(C)C[C@H](NC(=O)[C@H](CC(C)C)NC(=O)[C@H](Cc1c[nH]c2ccccc12)NC(=O)[C@H](CCCNC(=N)N)NC(=O)[C@@H](NC(=O)[C@H](Cc1ccccc1)NC(=O)[C@H](CC(=O)O)NC(=O)[C@H](CCC(N)=O)NC(=O)[C@H](C)NC(=O)[C@H](CCCNC(=N)N)NC(=O)[C@H](CCCNC(=N)N)NC(=O)[C@@H](NC(=O)[C@H](CC(=O)O)NC(=O)[C@H](CC(C)C)NC(=O)[C@H](Cc1ccc(O)cc1)NC(=O)[C@H](CCCCN)NC(=O)[C@H](CO)NC(=O)[C@H](CC(C)C)NC(=O)[C@H](CC(=O)O)NC(=O)[C@H](CO)NC(=O)[C@@H](NC(=O)[C@H](Cc1ccccc1)NC(=O)[C@@H](NC(=O)CNC(=O)[C@H](CCC(N)=O)NC(=O)C(C)(C)NC(=O)[C@@H](N)Cc1c[nH]cn1)[C@@H](C)O)[C@@H](C)O)[C@@H](C)O)C(C)C)C(=O)N[C@@H](CO)C(=O)N[C@@H](CCCCNC(=O)CC[C@H](NC(=O)CC[C@H](NC(=O)COCCOCCNC(=O)COCCOCCNC(=O)CC[C@H](NC(=O)CCCCCCCCCCCCCCCCC(=O)O)C(=O)O)C(=O)O)C(=O)O)C(N)=O` [Example 15, N^ε29-[(4S)-4-carboxy-4-[[(4S)-4-carboxy-4-[[2-[2-[2-[[2-[2-[2-[[(4S)-4-carboxy-4-(17-carboxyheptadecanoylamino)butanoyl]amino]ethoxy]ethoxy]acetyl]amino]ethoxy]ethoxy]acetyl]amino]butanoyl]amino]butanoyl]-[Aib2,Leu10,Thr16,Arg24,Leu27,Ser28,Lys29]-Glucagon amide] (H-H[Aib]QGTFTSDLSKYLDTRRAQDFVRWLLSK([γGlu-γGlu-AEEA-AEEA-γGlu-C18 diacid])-NH2; N-terminus assumed) was tested. Which EC50 did it give?
Answer: 0.02 nM

Question: With `CC(C)C[C@H](NC(=O)[C@H](CC(C)C)NC(=O)[C@H](Cc1c[nH]c2ccccc12)NC(=O)[C@H](CCC(N)=O)NC(=O)[C@@H](NC(=O)[C@H](Cc1ccccc1)NC(=O)[C@H](CC(=O)O)NC(=O)[C@H](CCCCN)NC(=O)[C@H](C)NC(=O)[C@H](CCCNC(=N)N)NC(=O)[C@H](CCCNC(=N)N)NC(=O)[C@H](CCC(=O)O)NC(=O)[C@H](CC(=O)O)NC(=O)[C@H](CC(C)C)NC(=O)[C@H](Cc1ccc(O)cc1)NC(=O)[C@H](CCCCN)NC(=O)[C@H](CO)NC(=O)[C@H](CC(C)C)NC(=O)[C@H](CC(=O)O)NC(=O)[C@H](CO)NC(=O)[C@@H](NC(=O)[C@H](Cc1ccccc1)NC(=O)[C@@H](NC(=O)CNC(=O)[C@H](CCC(N)=O)NC(=O)C(C)(C)NC(=O)[C@@H](N)Cc1c[nH]cn1)[C@@H](C)O)[C@@H](C)O)C(C)C)C(=O)N[C@@H](CO)C(=O)N[C@@H](CCCCNC(=O)CC[C@H](NC(=O)CC[C@H](NC(=O)COCCOCCNC(=O)COCCOCCNC(=O)CC[C@H](NC(=O)CCCCCCCCCCCCCCCCC(=O)O)C(=O)O)C(=O)O)C(=O)O)C(N)=O` [Example 13, N^ε29-[(4S)-4-carboxy-4-[[(4S)-4-carboxy-4-[[2-[2-[2-[[2-[2-[2-[[(4S)-4-carboxy-4-(17-carboxyheptadecanoylamino)butanoyl]amino]ethoxy]ethoxy]acetyl]amino]ethoxy]ethoxy]acetyl]amino]butanoyl]amino]butanoyl]-[Aib2,Leu10,Glu16,Lys20,Leu27,Ser28,Lys29]-Glucagon amide] (H-H[Aib]QGTFTSDLSKYLDERRAKDFVQWLLSK([γGlu-γGlu-AEEA-AEEA-γGlu-C18 diacid])-NH2; N-terminus assumed) as the compound, how does the EC50 read?
Answer: 0.006 nM

Question: How did the EC50 turn out when `CC(C)C[C@H](NC(=O)[C@H](CC(C)C)NC(=O)[C@H](Cc1c[nH]c2ccccc12)NC(=O)[C@H](CCC(N)=O)NC(=O)[C@@H](NC(=O)[C@H](Cc1ccccc1)NC(=O)[C@H](CC(=O)O)NC(=O)[C@H](CCCNC(=N)N)NC(=O)[C@H](C)NC(=O)[C@H](CCCNC(=N)N)NC(=O)[C@H](CCCNC(=N)N)NC(=O)[C@H](CO)NC(=O)[C@H](CC(=O)O)NC(=O)[C@H](CC(C)C)NC(=O)[C@H](Cc1ccc(O)cc1)NC(=O)[C@H](CCCCN)NC(=O)[C@H](CO)NC(=O)[C@H](CC(C)C)NC(=O)[C@H](CC(=O)O)NC(=O)[C@H](CO)NC(=O)[C@@H](NC(=O)[C@H](Cc1ccccc1)NC(=O)[C@@H](NC(=O)CNC(=O)[C@H](CCC(N)=O)NC(=O)C(C)(C)NC(=O)[C@@H](N)Cc1c[nH]cn1)[C@@H](C)O)[C@@H](C)O)C(C)C)C(=O)N[C@@H](CO)C(=O)N[C@@H](CCCCNC(=O)CC[C@H](NC(=O)CC[C@H](NC(=O)COCCOCCNC(=O)COCCOCCNC(=O)CC[C@H](NC(=O)CCCCCCCCCCCCCCCCC(=O)O)C(=O)O)C(=O)O)C(=O)O)C(N)=O` [Example 5, N^ε29-[(4S)-4-carboxy-4-[[(4S)-4-carboxy-4-[[2-[2-[2-[[2-[2-[2-[[(4S)-4-carboxy-4-(17-carboxyheptadecanoylamino)butanoyl]amino]ethoxy]ethoxy]acetyl]amino]ethoxy]ethoxy]acetyl]amino]butanoyl]amino]butanoyl]-[Aib2,Leu10,Arg20,Leu27,Ser28,Lys29]-Glucagon amide] (H-H[Aib]QGTFTSDLSKYLDSRRARDFVQWLLSK([γGlu-γGlu-AEEA-AEEA-γGlu-C18 diacid])-NH2; N-terminus assumed) was run?
Answer: 0.005 nM

Question: With `CC(C)C[C@H](NC(=O)[C@H](Cc1ccc(O)cc1)NC(=O)[C@H](CCCCN)NC(=O)[C@H](CO)NC(=O)[C@H](CC(C)C)NC(=O)[C@H](CC(=O)O)NC(=O)[C@H](CO)NC(=O)[C@@H](NC(=O)[C@H](Cc1ccccc1)NC(=O)[C@@H](NC(=O)CNC(=O)[C@H](CCC(N)=O)NC(=O)C(C)(C)NC(=O)[C@@H](N)Cc1c[nH]cn1)[C@@H](C)O)[C@@H](C)O)C(=O)N[C@@H](CC(=O)O)C(=O)N[C@@H](CO)C(=O)N[C@@H](CCCNC(=N)N)C(=O)N[C@@H](CCCNC(=N)N)C(=O)N[C@@H](C)C(=O)N[C@@H](CCCNC(=N)N)C(=O)N[C@@H](CC(=O)O)C(=O)N[C@@H](Cc1ccccc1)C(=O)N[C@H](C(=O)N[C@@H](CCC(N)=O)C(=O)N[C@@H](Cc1c[nH]c2ccccc12)C(=O)N[C@@H](CC(C)C)C(=O)N[C@@H](CC(C)C)C(=O)N[C@@H](CO)C(=O)N[C@H](C(=O)N[C@@H](CCCCNC(=O)CC[C@H](NC(=O)CC[C@H](NC(=O)COCCOCCNC(=O)COCCOCCNC(=O)CC[C@H](NC(=O)CCCCCCCCCCCCCCCCC(=O)O)C(=O)O)C(=O)O)C(=O)O)C(N)=O)[C@@H](C)O)C(C)C` [Example 6, N^α-([Aib2,Leu10,Arg20,Leu27,Ser28]-Glucagonyl)-N{Epsilon}[(4S)-4-carboxy-4-[[(4S)-4-carboxy-4-[[2-[2-[2-[[2-[2-[2-[[(4S)-4-carboxy-4-(17-carboxyheptadecanoylamino)butanoyl]amino]ethoxy]ethoxy]acetyl]amino]ethoxy]ethoxy]acetyl]amino]butanoyl]amino]butanoyl]Lys amide] (H-H[Aib]QGTFTSDLSKYLDSRRARDFVQWLLSTK([γGlu-γGlu-AEEA-AEEA-γGlu-C18 diacid])-NH2) as the compound, how does the EC50 read?
Answer: 0.02 nM
